Measured values taken from US20230148005A1, “MACROCYCLIC COMPOUNDS AND USES THEREOF” (THESEUS PHARMACEUTICALS, INC., priority 2020, published 2023).

Key:
[1] = target: EGFR^L858R/T790M/C^797S (Homo sapiens, UniProt P00533, C797S/L858R/T790M); assay: in vitro kinase assay (HTRF KinEASE-TK kit), LTC; type: biochemical; conditions: kinase inhibition
Text: (§1) Assays using an in vitro kinase assay kit (HTRF KinEASE-TK kit) can be used to study the inhibitory activity of compounds described herein with respect to EGFR mutants such as EGFR^L858R, EGFR^L58R/T790M, and EGFR^L858R/T790M/C^797S.

[2] = target: EGFR^L58R/T790M (Homo sapiens, UniProt P00533, L858R/T790M); assay: in vitro kinase assay (HTRF KinEASE-TK kit), LT; type: biochemical; conditions: kinase inhibition
Text: as §1

[3] = target: EGFR^L858R (Homo sapiens, UniProt P00533, L858R); assay: in vitro kinase assay (HTRF KinEASE-TK kit), L; type: biochemical; conditions: kinase inhibition
Text: as §1

[4] = target: Ba/F3 EGFR-Del19/T790M/C797S (Homo sapiens, UniProt P00533, T790M/C797S, cells depend on it, form not given); assay: Ba/F3 viability assay (CellTiter-Glo), DTC; type: cell-based; conditions: anti-proliferation, read-out: BaF3 DTC IC50
Sequence of Ba/F3 EGFR-Del19/T790M/C797S (P00533 with tags, fused parts or gaps DEL746-750/T790M/C797S, form open): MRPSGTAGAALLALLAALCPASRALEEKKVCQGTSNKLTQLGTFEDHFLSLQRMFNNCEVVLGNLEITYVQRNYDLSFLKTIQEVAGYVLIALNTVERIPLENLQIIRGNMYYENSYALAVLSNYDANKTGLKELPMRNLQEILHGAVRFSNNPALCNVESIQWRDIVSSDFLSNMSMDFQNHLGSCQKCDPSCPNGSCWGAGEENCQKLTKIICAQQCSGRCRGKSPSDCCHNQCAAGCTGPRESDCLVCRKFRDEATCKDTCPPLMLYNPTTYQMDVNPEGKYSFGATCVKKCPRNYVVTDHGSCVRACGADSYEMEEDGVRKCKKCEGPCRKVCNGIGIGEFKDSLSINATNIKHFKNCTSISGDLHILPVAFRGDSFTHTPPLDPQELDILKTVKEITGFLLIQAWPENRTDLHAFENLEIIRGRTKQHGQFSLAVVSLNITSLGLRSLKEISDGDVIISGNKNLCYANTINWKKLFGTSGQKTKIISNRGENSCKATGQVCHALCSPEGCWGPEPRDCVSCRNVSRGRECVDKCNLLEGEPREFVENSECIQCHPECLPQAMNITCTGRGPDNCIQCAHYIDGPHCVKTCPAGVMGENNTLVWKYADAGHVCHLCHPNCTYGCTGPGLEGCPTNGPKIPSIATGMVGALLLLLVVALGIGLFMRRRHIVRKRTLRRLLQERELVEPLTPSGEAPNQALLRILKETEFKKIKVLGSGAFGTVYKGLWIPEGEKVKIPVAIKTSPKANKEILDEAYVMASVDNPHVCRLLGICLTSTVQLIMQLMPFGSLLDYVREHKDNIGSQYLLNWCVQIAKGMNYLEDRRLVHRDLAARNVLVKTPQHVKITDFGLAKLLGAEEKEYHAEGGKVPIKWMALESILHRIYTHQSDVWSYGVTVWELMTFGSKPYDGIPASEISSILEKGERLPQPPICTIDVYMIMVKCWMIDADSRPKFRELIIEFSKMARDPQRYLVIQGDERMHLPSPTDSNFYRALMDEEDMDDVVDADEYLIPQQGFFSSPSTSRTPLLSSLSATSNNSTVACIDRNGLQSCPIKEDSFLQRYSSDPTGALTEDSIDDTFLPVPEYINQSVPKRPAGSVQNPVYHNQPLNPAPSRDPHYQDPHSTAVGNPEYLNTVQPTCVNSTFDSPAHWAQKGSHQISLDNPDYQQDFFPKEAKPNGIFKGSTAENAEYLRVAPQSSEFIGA
Text: (§2) Inhibition of cell proliferation can be studied using Ba/F3 viability assays, including the Promega CellTiter-Glo cell viability assay. This assay can be used to study the effect of compounds described herein in the following assays: (1) Ba/F3 Parental; (2) Ba/F3 EGFR-Del19/T790M; (3); Ba/F3 EGFR-Del19/C797S; and (4) Ba/F3 EGFR-Del19/T790M/C797S.

[5] = target: Ba/F3 EGFR-Del19/T790M (Homo sapiens, UniProt P00533, T790M, cells depend on it, form not given); assay: Ba/F3 viability assay (CellTiter-Glo), DT; type: cell-based; conditions: anti-proliferation, read-out: BaF3 DT IC50
Sequence of Ba/F3 EGFR-Del19/T790M (P00533 with tags, fused parts or gaps DEL746-750/T790M, form open): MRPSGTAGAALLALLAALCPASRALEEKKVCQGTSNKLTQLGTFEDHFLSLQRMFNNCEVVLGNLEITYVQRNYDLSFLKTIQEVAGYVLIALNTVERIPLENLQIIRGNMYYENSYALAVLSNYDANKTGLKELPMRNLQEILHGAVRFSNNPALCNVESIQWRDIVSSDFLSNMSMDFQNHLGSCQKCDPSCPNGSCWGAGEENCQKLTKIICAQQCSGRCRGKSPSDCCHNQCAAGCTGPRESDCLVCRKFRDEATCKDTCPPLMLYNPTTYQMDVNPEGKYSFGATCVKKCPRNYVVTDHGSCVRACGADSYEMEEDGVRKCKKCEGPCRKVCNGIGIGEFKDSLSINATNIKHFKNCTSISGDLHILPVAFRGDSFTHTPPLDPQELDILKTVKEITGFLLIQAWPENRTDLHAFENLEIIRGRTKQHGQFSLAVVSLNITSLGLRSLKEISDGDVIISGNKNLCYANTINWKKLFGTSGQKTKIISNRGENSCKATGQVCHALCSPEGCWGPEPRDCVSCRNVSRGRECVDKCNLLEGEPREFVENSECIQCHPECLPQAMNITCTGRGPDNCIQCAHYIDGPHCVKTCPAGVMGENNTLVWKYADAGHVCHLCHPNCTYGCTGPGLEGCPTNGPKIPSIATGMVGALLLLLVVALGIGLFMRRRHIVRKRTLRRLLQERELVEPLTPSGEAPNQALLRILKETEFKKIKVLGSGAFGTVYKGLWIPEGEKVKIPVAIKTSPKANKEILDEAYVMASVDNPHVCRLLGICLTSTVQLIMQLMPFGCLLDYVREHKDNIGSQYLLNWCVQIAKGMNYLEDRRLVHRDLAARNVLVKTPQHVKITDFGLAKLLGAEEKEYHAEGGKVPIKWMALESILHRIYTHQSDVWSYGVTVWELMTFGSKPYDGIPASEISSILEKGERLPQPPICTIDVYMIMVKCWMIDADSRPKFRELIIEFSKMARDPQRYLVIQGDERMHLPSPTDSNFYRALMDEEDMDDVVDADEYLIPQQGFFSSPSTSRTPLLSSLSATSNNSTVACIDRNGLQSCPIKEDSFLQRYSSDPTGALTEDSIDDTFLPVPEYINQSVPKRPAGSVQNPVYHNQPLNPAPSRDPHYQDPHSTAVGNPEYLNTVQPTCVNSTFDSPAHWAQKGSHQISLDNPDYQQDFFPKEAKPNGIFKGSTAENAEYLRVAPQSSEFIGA
Text: as §2

[6] = target: Ba/F3 EGFR-Del19/C797S (Homo sapiens, UniProt P00533, C797S, cells depend on it, form not given); assay: Ba/F3 viability assay (CellTiter-Glo), DC; type: cell-based; conditions: anti-proliferation, read-out: BaF3 DC IC50
Sequence of Ba/F3 EGFR-Del19/C797S (P00533 with tags, fused parts or gaps DEL746-750/C797S, form open): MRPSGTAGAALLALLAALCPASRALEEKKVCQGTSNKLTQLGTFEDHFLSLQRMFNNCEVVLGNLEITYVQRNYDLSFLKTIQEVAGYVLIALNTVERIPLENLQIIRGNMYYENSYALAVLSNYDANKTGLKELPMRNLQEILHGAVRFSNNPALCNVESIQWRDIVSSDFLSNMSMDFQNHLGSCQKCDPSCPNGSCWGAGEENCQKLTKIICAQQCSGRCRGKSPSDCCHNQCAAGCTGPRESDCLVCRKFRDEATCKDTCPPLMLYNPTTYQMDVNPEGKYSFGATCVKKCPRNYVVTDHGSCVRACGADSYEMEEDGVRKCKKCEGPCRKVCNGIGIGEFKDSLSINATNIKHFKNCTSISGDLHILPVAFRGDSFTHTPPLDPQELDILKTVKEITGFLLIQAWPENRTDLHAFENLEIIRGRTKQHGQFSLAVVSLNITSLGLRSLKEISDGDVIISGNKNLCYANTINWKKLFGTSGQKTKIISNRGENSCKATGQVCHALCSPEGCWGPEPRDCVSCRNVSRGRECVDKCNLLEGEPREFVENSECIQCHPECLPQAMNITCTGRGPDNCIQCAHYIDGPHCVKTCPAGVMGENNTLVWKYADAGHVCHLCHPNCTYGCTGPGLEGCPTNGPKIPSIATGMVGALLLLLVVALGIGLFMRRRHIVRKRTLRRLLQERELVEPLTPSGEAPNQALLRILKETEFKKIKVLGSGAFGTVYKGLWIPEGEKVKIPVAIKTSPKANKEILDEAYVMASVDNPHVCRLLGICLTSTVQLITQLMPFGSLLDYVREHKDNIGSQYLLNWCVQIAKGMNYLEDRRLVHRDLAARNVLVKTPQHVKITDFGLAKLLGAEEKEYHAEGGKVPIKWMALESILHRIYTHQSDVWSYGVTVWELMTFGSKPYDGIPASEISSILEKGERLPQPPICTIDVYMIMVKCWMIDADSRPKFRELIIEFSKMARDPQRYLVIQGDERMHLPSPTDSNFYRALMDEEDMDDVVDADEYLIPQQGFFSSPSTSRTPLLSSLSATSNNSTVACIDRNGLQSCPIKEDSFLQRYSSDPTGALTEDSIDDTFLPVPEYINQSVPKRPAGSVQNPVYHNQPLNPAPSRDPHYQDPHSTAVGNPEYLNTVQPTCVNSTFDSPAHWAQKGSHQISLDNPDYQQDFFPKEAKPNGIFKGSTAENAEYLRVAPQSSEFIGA
Text: as §2

[7] = system: Ba/F3 Parental; assay: Ba/F3 viability assay (CellTiter-Glo), parental; type: cell-based; conditions: Mus musculus, BaF3, anti-proliferation
Text: as §2

Sequence of EGFR^L858R/T790M/C^797S (P00533 25-1210 T790M/C797S/L858R): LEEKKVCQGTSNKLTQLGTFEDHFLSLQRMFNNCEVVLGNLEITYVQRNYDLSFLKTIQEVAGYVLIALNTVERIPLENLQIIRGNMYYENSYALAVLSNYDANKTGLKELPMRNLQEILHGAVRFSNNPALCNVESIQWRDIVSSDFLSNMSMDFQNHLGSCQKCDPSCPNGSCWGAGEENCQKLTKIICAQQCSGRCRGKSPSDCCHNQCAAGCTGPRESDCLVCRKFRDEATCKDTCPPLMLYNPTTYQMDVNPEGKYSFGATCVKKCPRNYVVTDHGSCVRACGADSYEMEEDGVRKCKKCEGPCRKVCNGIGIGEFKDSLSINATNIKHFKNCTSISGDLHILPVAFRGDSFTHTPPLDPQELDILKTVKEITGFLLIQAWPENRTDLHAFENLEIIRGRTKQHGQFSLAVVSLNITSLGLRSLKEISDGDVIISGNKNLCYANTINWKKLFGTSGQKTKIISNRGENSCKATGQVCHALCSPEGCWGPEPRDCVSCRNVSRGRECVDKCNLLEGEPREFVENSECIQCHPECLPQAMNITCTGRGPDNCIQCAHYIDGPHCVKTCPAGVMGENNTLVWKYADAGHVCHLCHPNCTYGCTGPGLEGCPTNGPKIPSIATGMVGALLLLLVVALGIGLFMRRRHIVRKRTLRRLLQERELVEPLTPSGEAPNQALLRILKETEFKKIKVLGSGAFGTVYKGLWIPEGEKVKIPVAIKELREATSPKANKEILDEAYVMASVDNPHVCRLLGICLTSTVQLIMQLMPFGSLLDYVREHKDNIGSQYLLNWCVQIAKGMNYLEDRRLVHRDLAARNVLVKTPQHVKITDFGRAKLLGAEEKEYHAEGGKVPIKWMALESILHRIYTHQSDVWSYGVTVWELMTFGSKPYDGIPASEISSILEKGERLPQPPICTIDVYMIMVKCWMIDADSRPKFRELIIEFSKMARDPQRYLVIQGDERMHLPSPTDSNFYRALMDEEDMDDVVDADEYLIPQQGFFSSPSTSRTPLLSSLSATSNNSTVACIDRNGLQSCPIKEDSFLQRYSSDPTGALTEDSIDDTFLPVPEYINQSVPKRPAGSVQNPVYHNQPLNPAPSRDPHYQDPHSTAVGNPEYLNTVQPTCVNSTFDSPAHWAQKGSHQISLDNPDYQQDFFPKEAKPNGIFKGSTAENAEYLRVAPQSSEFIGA

SMILES | IC50 [1] [nM] | IC50 [2] [nM] | IC50 [3] [nM] | GI50 [4] [nM] | GI50 [5] [nM] | GI50 [6] [nM] | IC50 [7] [nM]
CCN1CCC(Oc2cc(F)cc(-c3nn4c5cc(ncc35)Nc3ccnc(n3)-c3cnn(C)c3OCC[C@@H]4C)c2)CC1 [(128)] | < 10 | < 10 | 10 to 100 | 10 to 100 | 10 to 100 | 10 to 100 | 100 to 1000
C[C@H]1CCOc2c(cnn2C)-c2nccc(n2)Nc2cc3c(cn2)c(-c2cc(F)cc(OCCN(C)C)c2)nn31 [(129)] | < 10 | < 10 | 10 to 100 | 10 to 100 | 10 to 100 | 10 to 100 | 100 to 1000
C[C@H]1CCOc2c(cnn2C)-c2nccc(n2)Nc2cc3c(cn2)c(-c2cc(OCCN(C)C)ccc2F)nn31 [(130)] | < 10 | < 10 | 10 to 100 | 10 to 100 | 10 to 100 | 10 to 100 | ≥ 1000
C[C@H]1CCOc2c(cnn2C)-c2nccc(n2)Nc2cc3c(cn2)c(-c2ccc(F)c(OCCN(C)C)c2)nn31 [(131)] | < 10 | < 10 | < 10 | < 10 | < 10 | < 10 | 100 to 1000
CCN(CC)CCN(C)c1cc(F)cc(-c2nn3c4cc(ncc24)Nc2ccnc(n2)-c2cnn(C)c2OCC[C@@H]3C)c1 [(132)] | < 10 | < 10 | 10 to 100 | 10 to 100 | 10 to 100 | 10 to 100 | 100 to 1000
CCN(CC)CCOc1cc(F)cc(-c2nn3c4cc(ncc24)Nc2ccnc(n2)-c2cnn(C)c2OCC[C@@H]3C)c1 [(133)] | < 10 | < 10 | 10 to 100 | 10 to 100 | 10 to 100 | 10 to 100 | 100 to 1000
Cc1cc(OCCN(C)C)cc(-c2nn3c4cc(ncc24)Nc2ccnc(n2)-c2cnn(C)c2OCC[C@@H]3C)c1 [(134)] | < 10 | < 10 | < 10 | 10 to 100 | 10 to 100 | 10 to 100 | 100 to 1000

Now from value to molecule, other results behind:

IC50 [1] [nM] | IC50 [2] [nM] | IC50 [3] [nM] | SMILES | GI50 [4] [nM] | GI50 [5] [nM] | GI50 [6] [nM] | IC50 [7] [nM]
< 10 | < 10 | < 10 | CC(C)N1CCN(Cc2ccc(-c3nn4c5cc(ncc35)Nc3ccnc(n3)-c3cnn(C)c3OCC[C@@H]4C)n2C)CC1 [(122)] | < 10 | < 10 | < 10 | 100 to 1000
< 10 | < 10 | < 10 | C[C@H]1CCOc2c(cnn2C)-c2nccc(n2)Nc2cc3c(cn2)c(-c2ccc(CN4CCN(C5CC5)CC4)n2C)nn31 [(123)] | < 10 | < 10 | < 10 | 100 to 1000
< 10 | < 10 | < 10 | C[C@H]1CCOc2c(cnn2C)-c2nccc(n2)Nc2cc3c(cn2)c(-c2ccc(CN4CCN(C5COC5)CC4)n2C)nn31 [(124)] | < 10 | < 10 | < 10 | 100 to 1000
< 10 | < 10 | 10 to 100 | CCn1c(CN2CCN(C3CC3)CC2)ccc1-c1nn2c3cc(ncc13)Nc1ccnc(n1)-c1cnn(C)c1OCC[C@@H]2C [(125)] | < 10 | < 10 | 10 to 100 | 100 to 1000
< 10 | < 10 | < 10 | CCn1cc(-c2nn3c4cc(ncc24)Nc2ccnc(n2)-c2cnn(C)c2OCC[C@@H]3C)cc1CN1CCN(C2CC2)CC1 [(126)] | < 10 | < 10 | < 10 | 100 to 1000
< 10 | < 10 | < 10 | C[C@H]1CCOc2c(cnn2C)-c2nccc(n2)Nc2cc3c(cn2)c(-c2ccc(CN(C)C)n2C)nn31 [(127)] | < 10 | < 10 | < 10 | 100 to 1000
